{"source": "patent US9809560B2", "about": "“Ligands and methods for labeling biomolecules in vivo” (Albert Einstein College of Medicine, Inc., priority 2010, dated 2017)", "key": {"[1]": {"system": "PD1-Fc", "experiment": "Labeling of PD1-Fc via CuAAC and Cu-free click chemistry, detection by Western blot", "details": "1 h; for Western blot labeling signal: CuAAC with biotin-alkyne 100 μM or BARAC-biotin 100 μM", "procedure": "FIG. 13. Comparison of the efficiency of the CuAAC and BARAC-mediated copper-free click chemistry in labeling recombinant proteins and crude cell lysates. Western blot analysis of PD1-Fc isolated from HEK cells treated with Ac4ManNAz (top panel). Total protein loading was confirmed by Coomassie staining (bottom panel). Reaction conditions for CuAAC: biotin-alkyne (100 μM) in the presence of sodium ascorbate (2.5 mM), CuSO4 (250 μM) premixed with various tristriazolylamino ligands (500 μM); copper-free click reaction: BARAC-biotin (100 μM). Reactions were allowed to proceed for 1 h at room temperature, and analyzed by Western blot using an HRP-conjugated anti-biotin antibody. Structural formulae of tris(triazolylmethyl)amine-based ligands and BARAC-biotin. BTTAA=2-[4-({bis[(1-tert-butyl-1H-1,2,3-triazol-4-yl)methyl]amino}methyl)-1H-1,2,3-triazol-1-yl]acetic acid, BTTES=2-[4-({bis[(1-tert-butyl-1H-1,2,3-triazol-4-yl)methyl]amino}methyl)-1H-1,2,3-triazol-1-yl]ethyl hydrogen sulfate, TBTA=tris[(1-benzyl-1H-1,2,3-triazol-4-yl)methyl]amine, THPTA=tris[(1-hydroxypropyl-1H-1,2,3-triazol-4-yl)methyl]amine, BARAC=biarylazacyclooctynone.\nTo evaluate the activity of the new ligand-Cu(I) complex and compare the click reactions in the context of biomolecular labeling experiments, the first system used was a recombinant glycoprotein—Programmed Death 1-Immunoglobulin G Fc fusion (PD1-Fc). When expressed in mammalian cells, the Fc region of the recombinant protein is glycosylated and terminated with sialic acids. HEK-293 cells stably expressing PD1-Fc fusion protein were cultured in medium containing 50 μM sialic acid metabolic precursor—peracetylated N-azidoacetylmannosamine (Ac4ManNAz) for 4 days. The target protein was then isolated using protein G (a genetically engineered protein that contains Fc binding domains of protein G) agarose. To probe for the presence of the sialic acid-associated azide, the protein was reacted with biotin-alkyne via the CuAAC or BARAC-biotin via the copper-free click chemistry. For the CuAAC, 100 μM of biotin-alkyne was used as the coupling partner and the ratio of biotin-alkyne, ligand, CuSO4 and sodium ascorbate was held at 1:5:2.5:25, a labeling condition optimized in the lab. The copper-free click chemistry was performed with 100 μM of BARAC-biotin. The reactions were allowed to proceed for one hour and the labeled protein was analyzed by SDS-PAGE and Western blot. As quantified by ImageJ, reactions mediated by BTTES-Cu(I) and BTTAA-Cu(I) provided 2.6- and 2.1-fold stronger signal than the signal afforded by THPTA-Cu(I) for the fusion protein isolated from Ac4ManNAz-treated culture. […]"}, "[2]": {"system": "Jurkat cells", "experiment": "Live cell labeling of Ac4ManNAl-treated cells, BTTPS-Cu(I) vs BTTP-Cu(I), Alexa Fluor 488-streptavidin and 7-AAD flow cytometry", "format": "cell-based, human", "details": "for mean fluorescence intensity: 15 min", "procedure": "FIG. 12A-12D. Comparison of the efficiency of the BTTPS-Cu(I) and BTTP-Cu(I)-mediated azide-alkyne cycloaddition in labeling sialylated glycoconjugates in live cells. Jurkat cells were cultured in the presence or absence of Ac4ManNAl for 3 days. Cells were then reacted with biotin azide (50 μM) in the presence of sodium ascorbate (2.5 mM), and CuSO4 premixed with ligands BTTPS or BTTP ([ligand]:[CuSO4]=6:1). Reactions were quenched with BCS, stained with Alexa Fluor 488-streptavidin, 7-AAD, and analyzed by flow cytometry. (A) Mean fluorescence intensity (MFI) of cells treated with the BTTPS-Cu(I) or BTTP-Cu(I) catalyst ([CuSO4]=75 μM) in the course of 5-15 min reactions. (B) Percentage of viable cells without cell-membrane damage post the click reactions with the BTTPS-Cu(I) or BTTP-Cu(I) catalyst ([CuSO4]=75 μM) in the course of 5-15 min reactions. (C) MFI of cells treated with the BTTPS-Cu(I) catalyst ([CuSO4]=20-75 μM) in a one-minute reaction. (D) Percentage of viable cells without cell-membrane damage post the click reactions with the BTTPS-Cu(I) catalyst ([Cu]=20-75 μM) in a one-minute reaction.\nIn the ligand design, sulfation of BTTP is used to generate a negatively charged ligand, BTTPS (3-(4-((bis((1-tert-butyl-1H-1,2,3-triazol-4-yl)methyl)amino)methyl)-1H-1,2,3-triazol-1-yl)propyl hydrogen sulfate), (FIG. 14) to minimize the cellular internalization of the coordinated copper. To evaluate if sulfation confers the ligand the desired property, BTTPS-Cu(I) and BTTP-Cu(I) were compared in live cell labeling experiments. Jurkat cells were metabolically labeled with Ac4ManNAl. The treated cells were reacted with biotin-azide (50 μM) in the presence of BTTPS-Cu(I) or BTTP-Cu(I) for 5-15 min at room temperature (catalyst formulation: [ligand]:[CuSO4]=6:1, [CuSO4]=75 μM). After the reaction was quenched with BCS, the biotinylated cells were incubated with Alexa Fluor 488-streptavidin. The cells were then stained with 7-aminoactinomycin D (7-AAD), a fluorescent molecule with strong affinity for double-stranded DNA, and analyzed by flow cytometry. […] Therefore, healthy and damaged cells can be easily distinguished. […] Greater than 60% cells were still undamaged after treatment with BTTPS-Cu(I) (7-AAD negative), whereas only 26% cells treated with BTTP-Cu(I) reminded normal (FIG. 12b). Furthermore, the labeling temperature also plays a significant role in modulating the Cu-associated toxicity. When both Jurkat cells and the labeling reagents were pre-cooled to 4° C. before triggering the CuAAC, greater than 85% cells remained viable after a 15 min BTTPS-Cu(I)-mediated reaction with high labeling efficiency achieved (mean fluorescence intensity 2200, for reactions performed at 4° C.-room temperature vs 3679, for reactions performed at room temperature)."}, "[3]": {"details": "cited from earlier work"}, "[4]": {"system": "zebrafish embryos", "details": "1 mM CuSO4, 1.5 mM sodium ascorbate, 0.1 mM TBTA ligand; cited from earlier work"}, "[5]": {"experiment": "Fluorogenic kinetic assay of CuAAC of 3-azido-7-hydroxy-coumarin and propargyl alcohol", "details": "TBTA-Cu(I)-catalyzed reaction, same fluorogenic assay", "procedure": "FIG. 1A-1C. Copper(I)-catalyzed azide-alkyne cycloaddition (CuAAC) is accelerated by Cu(I)-stabilizing ligands. (A) CuAAC of azides and terminal alkynes to form 1,4-disubstituted 1,2,3-triazoles. (B) Structures of CuAAC-accelerating ligands. (C) Conversion-time profiles of CuAAC in the presence/absence of accelerating ligands. Reaction conditions: propargyl alcohol (50 μM), 3-azido-7-hydroxy-coumarin (100 μM), CuSO4 (75 μM), 0.1 M potassium phosphate buffer (pH 7.0)/DMSO 95:5, sodium ascorbate ([…]), rt. Error bars represent the standard deviation of three replicate experiments.\nProtocol for Kinetic Measurement of CuAAC of 3-azido-7-hydroxy-coumarin and Propargyl Alcohol […]\nProcedure for 200 μL reactions: In a 96-well fluorescence plate, add the reagents in the following order: (1) 40 μL of 500 mM phosphate buffer pH 7.0; (2) 1.0 μL 10 mM propargyl alcohol; (3) 10 μL of DMSO; (4) 6 μL of premixed CuSO4 and ligand ([Cu]=2.5 mM); (5) 1.0 μL 20 mM coumarin-N3; (6) 20 μL of 25 mM sodium ascorbate; (7) Read fluorescence (λex=404 nm, λem=477 nm, RFU) on the Synergy plate reader."}}, "note": "Where a name gives a salt, the structure may show the parent alone."}
{"compound": "tris[(1-hydroxypropyl-1H-1,2,3-triazol-4-yl)methyl]amine [THPTA]", "values": [{"measurement": "Western blot labeling signal", "setting": "[1]", "result": "significantly weaker labeling"}]}
{"compound": "CC(C)(C)n1cc(CN(Cc2cn(CC(=O)O)nn2)Cc2cn(C(C)(C)C)nn2)nn1", "note": "[BTTAA, 2-(4-((bis((1-tert-butyl-1H-1,2,3-triazol-4-yl)methyl)amino)methyl)-1H-1,2,3-triazol-1-yl)acetic acid]", "values": [{"measurement": "signal relative to THPTA-Cu(I) (Western blot, ImageJ)", "setting": "[1]; biotin-alkyne 100 μM, ligand 500 μM, CuSO4 250 μM, sodium ascorbate 2.5 mM", "result": 2.1, "unit": "fold"}]}
{"compound": "biarylazacyclooctynone [BARAC]", "values": [{"measurement": "Western blot labeling signal", "setting": "[1]", "result": "no detectable signal"}]}
{"compound": "CC(C)(C)n1cc(CN(Cc2cn(CCCOS(=O)(=O)O)nn2)Cc2cn(C(C)(C)C)nn2)nn1", "note": "[BTTPS, 3-(4-((bis((1-tert-butyl-1H-1,2,3-triazol-4-yl)methyl)amino)methyl)-1H-1,2,3-triazol-1-yl)propyl hydrogen sulfate]", "values": [{"measurement": "mean fluorescence intensity", "setting": "[2]; reactions performed at 4° C.-room temperature", "result": 2200}, {"measurement": "mean fluorescence intensity", "setting": "[2]; reactions performed at room temperature", "result": 3679}, {"measurement": "cells undamaged (7-AAD negative)", "setting": "[2]; 15 min reaction at room temperature, [ligand]:[CuSO4]=6:1, [CuSO4]=75 μM", "result": "Greater than 60%"}, {"measurement": "cells remaining viable", "setting": "[2]; cells and reagents pre-cooled to 4° C., 15 min reaction", "result": "greater than 85%"}]}
{"compound": "c1ccc(Cn2cc(CN(Cc3cn(Cc4ccccc4)nn3)Cc3cn(Cc4ccccc4)nn3)nn2)cc1", "note": "[TBTA, tris[(1-benzyl-1H-1,2,3-triazol-4-yl)methyl]amine]", "values": [{"measurement": "water solubility", "setting": "[3]", "result": "very poor water solubility"}, {"measurement": "Western blot labeling signal", "setting": "[1]", "result": "no detectable signal"}, {"measurement": "time by which all embryos were dead", "setting": "[4]", "result": "≤ 15", "unit": "min"}, {"measurement": "cycloaddition product yield at leveling off", "setting": "[5]", "result": "< 20", "unit": "%"}]}
